Assay results as given in US8372819B2, “Methods and compositions for targeting skip” (Salk Institute for Biological Studies, priority 2010, dated 2013).
Blank lines part the entries; values can stand above or below the molecule they belong to. Where a SMILES comes first, the peptide text is derived from it. The star is where a group is joined. Cbz = O=C(OCc1ccccc1)*

Tests used:
[1] = test system: SKIP mRNA; experiment: SKIP mRNA levels in 293 cells exposed to FP; assay type: cell-based; details: 10 nM FP
Method: (§1) SKIP expression is blocked by Flavopiridol (FP), a CDK inhibitor currently in clinical trials. […] SKIP protein levels decline starting at lOnM FP, though mRNA levels are unaffected at 10 nM FP.

[2] = test system: Ser2-phosphorylated RNAPII; experiment: Immunoblot of Ser2-phosphorylated RNAPII in response to FP; assay type: cell-based
Method: FIG. 8. Immunoblot detection of SKIP and Ser2-phosphorylated RNAPII in response to increasing levels of flavopiridol.
In contrast, levels of Ser2-phosphorylated RNAPII decline with exposure to much higher concentrations of FP (>100 nM).

[3] = test system: SKIP protein; experiment: Immunoblot of endogenous SKIP protein in 293 cells exposed to FP; assay type: cell-based; details: 293 cells exposed for 18 hr
Method: as §1

[4] = test system: p21; experiment: Immunoblot of p21 protein in U2OS cells; assay type: cell-based, human; details: U2OS cells transfected with control or SKIP siRNA, proteasome inhibitor treatment
Text: As observed for many essential proteins, depletion of SKIP by siRNA increases endogenous p53 levels. […] To assess whether SKIP plays a role in the normal p53 stress response, endogenous p53 was induced in two human cancer cell lines, U2OS (osteosarcoma) and HCT116 (colon cancer), using the chemotherapeutic DNA damage agents etoposide (U2OS cells) or doxorubicin (HCT116 cells). […] Consequently, PUMA expression was elevated in SKIP-depleted cells, and increased further with DNA damage (FIG. 1). In contrast, both basal and stress-induced p21 mRNA levels decreased in SKIP-depleted HCT116 or U2OS cells, compared with cells treated with a control siRNA, accompanied by a strong block to p21 protein expression, as detected by immunoblot (FIG. 1A, 1B, lanes 1-3 and 4-6). Similar results were obtained using two different SKIP siRNAs.
To determine whether SKIP might also affect p21 protein stability, the rate of p21 protein turnover was measured in SKIP knockdown cells in the absence of stress. Forty-eight hours after transfection with control or SKIP siRNA, U2OS cells were treated with cycloheximide (CHX) to prevent new protein synthesis, and the decay of endogenous p21 protein was measured.

[5] = test system: p21 mRNA; experiment: TGF-β induction of p21 mRNA in MDA-MB-231 cells (qRT-PCR); assay type: cell-based, human; details: TGF-β 5 ng/mL
Method: FIG. 5. SKIP is required for Nutlin and TGF-β-induced p21 gene expression. (A, left) qRT-PCR analysis of p21 and PUMA mRNA levels. U2OS cells were transfected with control or SKIP siRNA for 48 h, and incubated in the presence or absence of Nutlin (10 μM) for 18 h. (Right, lanes 1-4) Protein lysates were subjected to immunoblot analysis. (B) qRT-PCR analysis of p21 mRNA levels. MDA-MB-231 cells were transfected with control or SKIP siRNA for 48 h, followed by incubation in the presence or absence of TGF-β (5 ng/mL) for the indicated times. (C, lanes 1-6) Immunoblot analysis of SKIP, Smad2/3, p53, p21, or GAPDH in cells transfected with control or SKIP siRNA for 48 h, followed by treatment with TGF-β (5 ng/mL) for the indicated times. (D, left) qRT-PCR analysis of p21 mRNA levels in HCT 116 p53^−/− cells, H1299 cells, HeLa cells and MDA-MB-231 cells transfected with control or SKIP siRNA for 48 h. (Right, lanes 1-8) Protein lysates were subjected to immunoblot analysis. All of the mRNA expression levels were normalized to GAPDH mRNA, and are represented as fold increase or decrease over untreated cells. Error bars represent the standard deviation obtained from three independent experiments. […]

[6] = biological target: T1, SKIP (Ski-interacting protein), endogenous (human, UniProt Q13573 2-536); experiment: co-immunoprecipitation with SKIP antibody from U2OS whole-cell lysate, Western blot
T1 construct: Endogenous protein of human HCT116 nuclear extract (pull-downs) or U2OS whole-cell lysate (co-IP); also called SNW1; NCoA62
T1 sequence: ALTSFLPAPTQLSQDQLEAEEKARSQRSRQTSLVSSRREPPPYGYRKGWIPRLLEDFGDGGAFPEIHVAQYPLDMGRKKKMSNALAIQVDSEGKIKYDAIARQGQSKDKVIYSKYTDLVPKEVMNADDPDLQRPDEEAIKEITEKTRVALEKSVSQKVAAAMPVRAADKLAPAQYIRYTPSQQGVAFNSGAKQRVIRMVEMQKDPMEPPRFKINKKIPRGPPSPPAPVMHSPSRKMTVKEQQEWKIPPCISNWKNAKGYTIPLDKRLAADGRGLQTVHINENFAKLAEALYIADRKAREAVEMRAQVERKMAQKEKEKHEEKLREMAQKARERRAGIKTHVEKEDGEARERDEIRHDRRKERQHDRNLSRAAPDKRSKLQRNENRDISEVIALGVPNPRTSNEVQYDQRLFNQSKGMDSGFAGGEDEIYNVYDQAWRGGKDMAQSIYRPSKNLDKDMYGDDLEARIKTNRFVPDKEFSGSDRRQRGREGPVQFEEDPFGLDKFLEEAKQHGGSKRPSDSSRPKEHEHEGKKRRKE
Method: The immune complexes were subjected to SDS-PAGE followed by immunoblotting with the secondary antibody. For RNA-IP experiments, cells were lysed in ice-cold NET-2 buffer (50 mM Tris-HCL at pH 7.4, 300 mM NaCl, 0.5% [vol/vol] Nonidet P-40, 1× complete protease inhibitors [Roche], 100 U/mL RNase OUT [Invitrogen]). The lysate was incubated with the indicated antibodies or control normal rabbit/mouse IgG on a rotator overnight at 4° C., followed by addition of protein A/G agarose (Invitrogen) for 2 h at 4° C. Beads were then washed four times using the NET-2 buffer. Immunoprecipitated RNA was then extracted using Trizol and reverse-transcribed with random hexamers. The resulting cDNA was analyzed with the indicated primer sets (Table 5).
Figure 4: FIG. 4. SKIP associates with unspliced p21 mRNA and recruits U2AF65. (A) Immunoblot analysis of the interaction between SKIP, U2AF35, and U2AF65 in GST pull-down experiments from HCT116 cell nuclear extract. (B) Total proteins were extracted from U2OS cells for coimmunoprecipitation. Immunoprecipitates were examined by Western blot using antibodies against SKIP, U2AF35, or U2AF65. (C) ChIP analysis of U2AF65 binding on the p21 and PUMA genes. […] ChIP-enriched DNA was quantified by qPCR with the indicated primers in FIG. 2A. […] Immunoprecipitated p21 mRNA was detected using qRT-PCR with the indicated primers.

[7] = biological target: T1, SKIP (Ski-interacting protein), …; experiment: GST pull-down from HCT116 nuclear extract, Western blot
Method: SST fusion constructs were expressed in BL21 *Escherichia coli* cells, and crude bacterial lysates were prepared by sonication in GST lysis buffer (25 mM Tris at pH 7.5, 150 mM NaCl, 1 mM EDTA, protease inhibitor). Approximately 10 μg of the appropriate GST fusion proteins was incubated with precleared HCT116 nuclear extract for 2 h at 4° C. The binding reaction was then added with 30 μL of glutathione-Sepharose beads and mixed for another 1 h at 4° C. The beads were washed four times with the above GST lysis buffer, separated on a 10% SDS-PACE, and analyzed by Western blotting.
Figure 4: FIG. 4. SKIP associates with unspliced p21 mRNA and recruits U2AF65. (A) Immunoblot analysis of the interaction between SKIP, U2AF35, and U2AF65 in GST pull-down experiments from HCT116 cell nuclear extract. (B) Total proteins were extracted from U2OS cells for coimmunoprecipitation. Immunoprecipitates were examined by Western blot using antibodies against SKIP, U2AF35, or U2AF65. (C) ChIP analysis of U2AF65 binding on the p21 and PUMA genes. U2OS cells were transfected with control or SKIP siRNA for 48 h, followed by treatment with vehicle or etoposide (20 μM) for 6 h. Protein extracts were immunoprecipitated with antibodies against U2AF65. ChIP-enriched DNA was quantified by qPCR with the indicated primers in FIG. 2A. […] Immunoprecipitated p21 mRNA was detected using qRT-PCR with the indicated primers.

Molecule: CN1CC[C@H](c2c(O)cc(O)c3c(=O)cc(-c4ccccc4Cl)oc23)[C@H](O)C1 [FP, Flavopiridol]
SKIP mRNA levels [1]: unaffected
FP concentration at which levels of Ser2-phosphorylated RNAPII decline [2]: > 100 nM
FP concentration at which SKIP protein levels start to decline [3]: lO

Molecule: CC(C)C[C@@H](C=O)NC(=O)[C@H](CC(C)C)NC(=O)[C@H](CC(C)C)NC(=O)OCc1ccccc1 [MG132] (Cbz-Leu-Leu-Leu-aldehyde)
p21 protein levels [4]: elevated p21 protein levels

Molecule: TGF-β
time of peak p21 mRNA levels after induction [5]: 4 h

binding result [6]: no binding
B1: U2AF35 (other, human, UniProt Q01081 2-240, looked up)
chain: AEYLASIFGTEKDKVNCSFYFKIGACRHGDRCSRLHNKPTFSQTIALLNIYRNPQNSSQSADGLRCAVSDVEMQEHYDEFFEEVFTEMEEKYGEVEEMNVCDNLGDHLVGNVYVKFRREEDAEKAVIDLNNRWFNGQPIHAELSPVTDFREACCRQYEMGECTRGGFCNFMHLKPISRELRRELYGRRRKKHRSRSRSRERRSRSRDRGRGGGGGGGGGGGGRERDRRRSRDRERSGRF
notes: Endogenous protein from human cancer cell lines; also called nuclear U2AF35

binding result [7]: no binding
B2: GST-U2AF35 (other, UniProt Q01081 1-240, looked up)
chain: MAEYLASIFGTEKDKVNCSFYFKIGACRHGDRCSRLHNKPTFSQTIALLNIYRNPQNSSQSADGLRCAVSDVEMQEHYDEFFEEVFTEMEEKYGEVEEMNVCDNLGDHLVGNVYVKFRREEDAEKAVIDLNNRWFNGQPIHAELSPVTDFREACCRQYEMGECTRGGFCNFMHLKPISRELRRELYGRRRKKHRSRSRSRERRSRSRDRGRGGGGGGGGGGGGRERDRRRSRDRERSGRF
notes: not shown: glutathione-S-transferase (GST) fusion tag
